Consider 9 compounds from patent US8575135B2 (Gilead Sciences, Inc., priority 2011, dated 2013).

Experiment in all cases: microbe, parasite or virus in culture
What all share (conditions): Hepatitis C virus

In assay [1] the test system is stable HCV 2a JFH-1 Rluc replicon cells (L31 present in NS5A). The assay is classed as cell-based.
In assay [2] the test system is NS5A chimeric genotype 2a JFH-1 replicon with genotype 2b MD2b-1 strain NS5A gene (M31 present). Format: cell-based, HCV. The procedure: (§1) Evaluation of Cell-Based Anti-HCV Activity:
(§2) Antiviral potency (EC50) was determined using a Renilla luciferase (RLuc)-based HCV replicon reporter assay. […] To perform the assay for genotype 2a (with M31 present in NS5A) or 2b, NS5A chimeric genotype 2a JFH-1 replicons that encodes a RLuc-Neo reporter and either genotype 2a J6 strain NS5A gene or genotype 2b MD2b-1 strain NS5A gene (both with M31 present) respectively, were either transiently transfected (t) into Huh-Lunet cells or were established as stably replicating replicon cells (s) is provided. Either cells were dispensed into 384-well plates for EC50 assays. To perform the assay for genotype 3 and 4, NS5A chimeric genotype 1b Con1 replicons that encodes a Pi-RLuc reporter and either genotype 3a S52 strain NS5A gene or genotype 4a ED43 strain NS5A gene respectively, were transiently transfected (t) into Huh-Lunet cells, which were subsequently dispensed into 384-well plates. Compounds were dissolved in DMSO at a concentration of 10 mM and diluted in DMSO either manually or using an automated pipeting instrument. Serially 3-fold diluted compounds were either manually mixed with cell culture media and added to the seeded cells or directly added to the cells using an automated instrument. […] 72 hours later, cells were lysed and Renilla luciferase activity quantified as recommended by the manufacturer (Promega-Madison, Wis.). Non-linear regression was performed to calculate EC50 values.

In assay [3] the test system is NS5A chimeric genotype 2a JFH-1 replicon with genotype 2a J6 strain NS5A gene (M31 present). Format: cell-based, HCV. On the procedure:
as §1, §2

Assay [4] relates to stable HCV 1a RLuc replicon cells (genotype 1a H77 replicon). Format: cell-based. On the procedure: as §1, §2
Assay [5] relates to NS5A chimeric genotype 1b Con1 replicon with genotype 4a ED43 strain NS5A gene. The assay is classed as cell-based, HCV.

Read-outs that look alike come from different tables or passages of the source.

For the compound `CC[C@@H](C)[C@H](NC(=O)OC)C(=O)N1C[C@@H](COC)C[C@H]1c1nc2ccc3cc4c(cc3c2[nH]1)OCc1cc(-c2cnc([C@@H]3CC[C@H](C)N3C(=O)[C@@H](NC(=O)OC)[C@H](C)CC)[nH]2)ccc1-4` [Compound 643], the EC50 in assay [1] (read-out: 2a JFH) is less than 1 nM; in assay [1] (read-out: 2a JFH (nM)), 0.013 nM; in assay [2] (read-out: 2b), less than 1 nM; in assay [2] (read-out: 2b (t) (nM)), 0.607 nM; in assay [3] (read-out: 2a J6), less than 1 nM; in assay [3] (read-out: 2a Jb (t) (nM)), 0.206 nM. Moreover, the EC50 in assay [4] (read-out: 1a) is less than 1 nM; in assay [4] (read-out: 1a (nM)), 0.015 nM.

`COC[C@H]1C[C@@H](c2ncc(-c3ccc4c(c3)COc3cc5c(ccc6nc([C@@H]7CCCN7C(=O)[C@@H](NC(=O)OC)C(C)C)[nH]c65)cc3-4)[nH]2)N(C(=O)[C@H](N)c2ccccc2)C1` [Example OL, Methyl {(2S)-1-[(2S)-2-(9-{2-[(2S,4S)-[(2R)-2-amino-2-phenylacetyl]-4-(methoxymethyl)pyrrolidin-2-yl]-1H-imidazol-5-yl}-1,11-dihydroisochromeno[4′,3′:6,7]naphtho[1,2-d]imidazol-2-yl)pyrrolidin-1-yl]-3-methyl-1-oxobutan-2-yl}carbamate]: the EC50 in assay [1] (read-out: 2a JFH) was less than 1 nM; in assay [1] (read-out: 2a JFH (nM)), 0.012 nM; in assay [2] (read-out: 2b) it was less than 1 nM; in assay [2] (read-out: 2b (s) (nM)) it was 0.052 nM; in assay [2] (read-out: 2b (t) (nM)), 0.052 nM; in assay [3] (read-out: 2a J6) it was less than 1 nM. Besides, the EC50 in assay [3] (read-out: 2a Jb (t) (nM)) was 0.07 nM; in assay [4] (read-out: 1a), less than 1 nM; in assay [4] (read-out: 1a (nM)) it was 0.047 nM.

Take `CC[C@H](C)[C@H](NC(=O)OC)C(=O)N1[C@@H](C)CC[C@H]1c1ncc(-c2ccc3c(c2)COc2cc4c(ccc5nc([C@@H]6C[C@H](COC)CN6C(=O)[C@@H](NC(=O)OC)C(C)C)[nH]c54)cc2-3)[nH]1` [Example OX, Methyl {(2S)-1-[(2S,4S)-2-(9-{2-[(2S,5S)-1-{(2S,3S)-2-[(methoxycarbonyl)amino]-3-methylpentanoyl}-5-methylpyrrolidin-2-yl]-1H-imidazol-5-yl}-1,11-dihydroisochromeno[4′,3′:6,7]naphtho[1,2-d]imidazol-2-yl)-4-(methoxymethyl)pyrrolidin-1-yl]-3-methyl-1-oxobutan-2-yl}carbamate]: the EC50 is less than 1 nM in assay [1] (read-out: 2a JFH); 0.006 nM in assay [1] (read-out: 2a JFH (nM)); less than 1 nM in assay [2] (read-out: 2b); 0.107 nM in assay [2] (read-out: 2b (t) (nM)); less than 1 nM in assay [3] (read-out: 2a J6); 0.113 nM in assay [3] (read-out: 2a Jb (t) (nM)). Further, the EC50 in assay [4] (read-out: 1a) was less than 1 nM; in assay [4] (read-out: 1a (nM)), 0.007 nM.

In the case of `COC(=O)N[C@H](C(=O)N1C[C@@H](COC(F)F)C[C@H]1c1ncc(-c2ccc3c(c2)COc2cc4c(ccc5nc([C@@H]6CC[C@H](C)N6C(=O)[C@@H](NC(=O)OC)C(C)C)[nH]c54)cc2-3)[nH]1)C(C)C` [Example PT, methyl {(2S)-1-[(2S,4S)-4-[(difluoromethoxy)methyl]-2-(5-{2-[(2S,5S)-1-{(2S)-2-[(methoxycarbonyl)amino]-3-methylbutanoyl}-5-methylpyrrolidin-2-yl]-1,11-dihydroisochromeno[4′,3′:6,7]naphtho[1,2-d]imidazol-9-yl}-1H-imidazol-2-yl)pyrrolidin-1-yl]-3-methyl-1-oxobutan-2-yl}carbamate], the EC50 is less than 1 nM in assay [1] (read-out: 2a JFH); 0.007 nM in assay [1] (read-out: 2a JFH (nM)); less than 1 nM in assay [2] (read-out: 2b); 0.182 nM in assay [2] (read-out: 2b (t) (nM)); less than 1 nM in assay [3] (read-out: 2a J6); 0.383 nM in assay [3] (read-out: 2a Jb (t) (nM)). In addition, the figures for the EC50 in assay [4] (read-out: 1a) and in assay [4] (read-out: 1a (nM)) were less than 1 nM and 0.007 nM, respectively.

Take `CC[C@H](C)[C@H](NC(=O)OC)C(=O)N1C[C@@H](COC)C[C@H]1c1ncc(-c2ccc3c(c2)COc2cc4c(ccc5nc([C@@H]6CC[C@H](C)N6C(=O)[C@@H](NC(=O)OC)C(C)C)[nH]c54)cc2-3)[nH]1` [Example OF, Methyl {(2S,3S)-1-[(2S,4S)-2-(5-{2-[(2S,5S)-1-{(2S)-2-[(methoxycarbonyl)amino]-3-methylbutanoyl}-5-methylpyrrolidin-2-yl]-1,11-dihydroisochromeno[4′,3′:6,7]naphtho[1,2-d]imidazol-9-yl}-1H-imidazol-2-yl)-4-(methoxymethyl)pyrrolidin-1-yl]-3-methyl-1-oxopentan-2-yl}carbamate]: the EC50 is less than 1 nM in assay [1] (read-out: 2a JFH); 0.008 nM in assay [1] (read-out: 2a JFH (nM)); less than 1 nM in assay [2] (read-out: 2b); 0.196 nM in assay [2] (read-out: 2b (t) (nM)); less than 1 nM in assay [3] (read-out: 2a J6); 0.445 nM in assay [3] (read-out: 2a Jb (t) (nM)). For the same compound, the EC50 was less than 1 nM in assay [4] (read-out: 1a) and 0.01 nM in assay [4] (read-out: 1a (nM)).

Regarding `COC(=O)N[C@H](C(=O)N1[C@@H](C)CC[C@H]1c1ncc(-c2ccc3c(c2)COc2cc4c(ccc5nc([C@@H]6CCCN6C(=O)[C@@H](NC(=O)OC)C6CCOCC6)[nH]c54)cc2-3)[nH]1)C(C)C` [Compound 602], the EC50 in assay [5] (read-out: 4a) is less than 1 nM; in assay [5] (read-out: 4a (s) (nM)), 0.013 nM; in assay [1] (read-out: 2a JFH) it was less than 1 nM; in assay [1] (read-out: 2a JFH (nM)), 0.01 nM; in assay [2] (read-out: 2b), less than 1 nM; in assay [2] (read-out: 2b (s) (nM)) it was 0.036 nM. For the same compound, the EC50 was 0.036 nM in assay [2] (read-out: 2b (t) (nM)); less than 1 nM in assay [3] (read-out: 2a J6); 0.053 nM in assay [3] (read-out: 2a Jb (t) (nM)); less than 1 nM in assay [4] (read-out: 1a); 0.025 nM in assay [4] (read-out: 1a (nM)).

`CC[C@@H](C)[C@H](NC(=O)OC)C(=O)N1C[C@@H](COC)C[C@H]1c1ncc(-c2ccc3c(c2)COc2cc4c(ccc5nc([C@@H]6CC[C@H](C)N6C(=O)[C@@H](NC(=O)OC)C(C)C)[nH]c54)cc2-3)[nH]1` [Example OG, Methyl {(2S)-1-[(2S,5S)-2-(9-{2-[(2S,4S)-1-[N-(methoxycarbonyl)-L-alloisoleucyl]-4-(methoxymethyl)pyrrolidin-2-yl]-1H-imidazol-5-yl}-1,11-dihydroisochromeno[4′,3′:6,7]naphtho[1,2-d]imidazol-2-yl)-5-methylpyrrolidin-1-yl]-3-methyl-1-oxobutan-2-yl}carbamate]: the EC50 in assay [1] (read-out: 2a JFH) is less than 1 nM; in assay [1] (read-out: 2a JFH (nM)), 0.008 nM; in assay [2] (read-out: 2b), less than 1 nM; in assay [2] (read-out: 2b (t) (nM)) it was 0.437 nM; in assay [3] (read-out: 2a J6), less than 1 nM; in assay [3] (read-out: 2a Jb (t) (nM)), 0.601 nM. The EC50 in assay [4] (read-out: 1a) is less than 1 nM; in assay [4] (read-out: 1a (nM)), 0.009 nM.

Regarding `COC[C@H]1C[C@@H](c2nc3ccc4cc5c(cc4c3[nH]2)OCc2cc(-c3ccc4nc([C@@H]6CCCN6C(=O)[C@@H](NC(=O)OC)C(C)C)[nH]c4c3)ccc2-5)N(C(=O)[C@H](NC(=O)OC)c2ccccc2)C1` [Example MS], the EC50 was less than 1 nM in assay [5] (read-out: 4a); 0.02 nM in assay [5] (read-out: 4a (s) (nM)); 0.014 nM in assay [5] (read-out: 4a (t) (nM)); less than 1 nM in assay [1] (read-out: 2a JFH); 0.005 nM in assay [1] (read-out: 2a JFH (nM)); greater than 5 nM in assay [2] (read-out: 2b). The EC50 in assay [2] (read-out: 2b (s) (nM)) is 9.56 nM; in assay [3] (read-out: 2a J6), greater than 5 nM; in assay [3] (read-out: 2a J6 (s) (nM)) it was 15.6 nM; in assay [4] (read-out: 1a), less than 1 nM; in assay [4] (read-out: 1a (nM)), 0.008 nM.

`COC[C@H]1C[C@@H](c2ncc(-c3ccc4c(c3)COc3cc5c(ccc6nc([C@@H]7C[C@H](COC(F)F)CN7C(=O)[C@@H](NC(=O)OC)C(C)C)[nH]c65)cc3-4)[nH]2)N(C(=O)[C@@H](NC(=O)OC)C(C)C)C1` [Example PU, methyl {(2S)-1-[(2S,4S)-2-(5-{2-[(2S,4S)-4-[(difluoromethoxy)methyl]-1-{(2S)-2-[(methoxycarbonyl)amino]-3-methylbutanoyl}pyrrolidin-2-yl]-1,11-dihydroisochromeno[4′,3′:6,7]naphtho[1,2-d]imidazol-9-yl}-1H-imidazol-2-yl)-4-(methoxymethyl)pyrrolidin-1-yl]-3-methyl-1-oxobutan-2-yl}carbamate]: the EC50 was less than 1 nM in assay [1] (read-out: 2a JFH); 0.006 nM in assay [1] (read-out: 2a JFH (nM)); less than 1 nM in assay [2] (read-out: 2b); 0.442 nM in assay [2] (read-out: 2b (t) (nM)); less than 1 nM in assay [3] (read-out: 2a J6); 0.068 nM in assay [3] (read-out: 2a Jb (t) (nM)). In addition, the EC50 was less than 1 nM in assay [4] (read-out: 1a) and 0.012 nM in assay [4] (read-out: 1a (nM)).
